The numbers were not newly measured in US7220858B2, “Synthesis of hydrazine and chlorinated derivatives of bicyclic pyridazines” (Barbeau Pharma, Inc., priority 2003, dated 2007), which cites them from elsewhere.

Read-outs that look alike come from different tables or passages of the source.

For series [1] the following is noted: in the presence of oxygen and metal ions such as Cu+2, Fe+2, and Fe+3.
The subject of series [2] is vascular smooth muscle.

On to `NNc1nncc2ccccc12` [Hydralazine, 1-hydrazinophthalazine], for which, in series [1], the oxidation result is “oxidizes rapidly”. Further, the onset of action in series [2] (given intravenously) is 10 to 20 min. For the same compound, the metabolism and excretion result in series [2] (in the body) is on record as “extensively metabolized in the body to products that are excreted predominantly in the urine”. Moreover, in series [2] (in vivo), the duration of action was 3 to 4 h, the onset of action is 10 to 30 min and the “time to maximum hypotensive effect” value is 10 to 80 min.
